Experimental data reported in patent US10105437B2, “Epitopes related to coeliac disease” (BTG International Limited, priority 2004, dated 2018).
Where no end group is shown, it is not given here.

The substances below were run on PBMC from HLA DQ8+DQ2- CD subjects (assay: Interferon gamma ELISPOT, second round gliadin library in HLA DQ8 subjects). Conditions: not given.
Assay type: cell-based, human
Source text: PBMC from two subjects initially challenged were used to screen the first round “Melbourne” wheat gliadin 20mer library. The 20mer sequences identified using PBMC from these two HLA DQ8 CD subjects were dissected further by screening, in five HLA DQ8+DQ2− CD subjects including the two original subjects, a second round library based on reactive 20mers in the 1st round library. The 2nd round library consisted of screening grade overlapping 16mers, and 13mers predicted to correspond to tTG-mediated deamidation products of epitopes with the potential for deamidation of glutamine at position 1 and/or position 9 (consistent with the HLA DQ8 peptide binding motif). In addition, the 1400 glutenin (HMW and LMW) tTG-pretreated 20mers in the “Melbourne” wheat gluten library were also screened in these five subjects.

Row | Substance | effect of deamidation of specific glutamine residues on ELISPOT responses
1 | (QE)GSFQPSQ(QE): previously published HLA DQ8 epitope, van der Wal 1998 (XGSFQPSQX; not fully specified; printed as (QE)GSFQPSQ(QE)) [reference compound] | enhanced or permissive to specific glutamine residues being deamidated
2 | (QE)QPFP(QE)QP(QE): HLA DQ8 gliadin epitope motif, Q or E at marked positions (XQPFPXQPX; not fully specified; printed as (QE)QPFP(QE)QP(QE)) | enhanced or permissive to specific glutamine residues being deamidated
3 | (QE)QPFPLQP(QE): HLA DQ8 gliadin epitope motif, Q or E at marked positions (XQPFPLQPX; not fully specified; printed as (QE)QPFPLQP(QE)) | enhanced or permissive to specific glutamine residues being deamidated
4 | (QE)QPIPVQP(QE): HLA DQ8 gliadin epitope motif, Q or E at marked positions (XQPIPVQPX; not fully specified; printed as (QE)QPIPVQP(QE)) | enhanced or permissive to specific glutamine residues being deamidated
5 | (QE)QPQQPFP(QE): HLA DQ8 gliadin epitope motif, Q or E at marked positions (XQPQQPFPX; not fully specified; printed as (QE)QPQQPFP(QE)) | enhanced or permissive to specific glutamine residues being deamidated

These substances were tested on PBMC from HLA-DQ2+ coeliac subjects (assay: Interferon gamma ELISPOT, secalin 20mer first round library after rye challenge). Conditions: 20mers pre-treated with tTG; day 6 PBMC; 14 subjects.
Assay type: cell-based, human
Method: (§1) Peptides were initially dissolved in aqueous acetonitrile (50%). Peptides in aqueous acetonitrile were transferred to sterile 96-well plates and diluted in sterile PBS with 1 mM calcium (250 mcg/ml) and then incubated with tTG (25 mcg/ml) (Sigma T5398) for 6 h 37° C. and then stored frozen (−20° C.) until use.
(§2) IFNγ ELISpot assays (Mabtech, Sweden) were performed in 96-well plates (MAIP S-45, Millipore) in which each well contained 25 mcl of peptide solution and 100 mcl of PBMC (2-8×10^5/well) in RPMI containing 10% heat inactivated human AB serum. After development and drying, IFNγ ELISpot plates were assessed using the MAIP automated ELISpot plate counter. Data was then analysed according to a novel algorithm (Expectation Maximization: EM) to define and quantify interferon-gamma responses to 9mer sequences contained within the peptide library (see FIG. 3 and below). 9mer peptides were then rationalised according to an algorithm that assumes redundancy in T-cell recognition, the “IterativeCluster” algorithm (see FIG. 4 and below), by allowing groups of amino acids with similar chemical properties at any one position in the 9mer, or for glutamate to replace glutamine at any position (assuming deamidation may have occurred).
Secalin and hordein 20mer first round peptide libraries were assessed 3 days after completing rye (bread, 100 g/d for 3 days) or barley (boiled, 100 g/d for 3 days) challenge (“day 6” PBMC interferon gamma ELISPOT responses). Although iterative analysis using 2nd and 3rd round peptide libraries to define epitopes has not yet been performed, the 20mers pre-treated with tTG found to induce “potent” responses shared substantial structural similarity to the bioactive peptides identified after wheat challenge. […] The dominant (>70% maximal response) 20mer after rye challenge was usually […] (SEQ ID NO: 1769) (8/14 subjects), or occasionally […] (SEQ ID NO: 1770) (4/14), […] (SEQ ID NO: 1771) (1/14), […] (SEQ ID NO: 1772) (1/14) and/or […] (SEQ ID NO: 1773) (1/14). Additional peptides noted for greater than 40% maximal response in at least 1 subject include: […]

Row | Substance | subjects in whom 20mer was dominant (>70% maximal response) after rye challenge
6 | PQQLFPLPQQPFPQPQQPFP (Description of Artificial Sequence: Synthetic gluten peptide) [rye secalin 20mer] | 8/14
7 | PQTQQPQQPFPQPQQPQQLF (Description of Artificial Sequence: Synthetic gluten peptide) [rye secalin 20mer] | 1/14
8 | QEQREGVQILLPQSHQQLVG (Description of Artificial Sequence: Synthetic gluten peptide) [rye secalin 20mer] | 1/14
9 | QPFPQPQQPTPIQPQQPFPQ (Description of Artificial Sequence: Synthetic gluten peptide) [rye secalin 20mer] | 4/14
10 | QQPQQLFPQTQQSSPQQPQQ (Description of Artificial Sequence: Synthetic gluten peptide) [rye secalin 20mer] | 1/14

Same assay, conditions: after rye challenge; 14 subjects

Row | Substance | number of subjects with > 70% maximal response | subjects with greater than 40% maximal response
11 | FPLQPQQPFPQQPEQIISQQ (Description of Artificial Sequence: Synthetic gluten peptide) [rye secalin 20mer] | 1 | 5/14
12 | FPQQPQQPFPQPQQQLPLQP (Description of Artificial Sequence: Synthetic gluten peptide) [rye secalin 20mer] | 2 | 3/14
13 | NMQVGPSGQVEWPQQQPLPQ (Description of Artificial Sequence: Synthetic gluten peptide) [rye secalin 20mer] | 1 | 2/14
14 | PQQPFPQQPEQIIPQQPQQP (Description of Artificial Sequence: Synthetic gluten peptide) [rye secalin 20mer] | 3 | 5/14
15 | PQQPQRPFAQQPEQIISQQP (Description of Artificial Sequence: Synthetic gluten peptide) [rye secalin 20mer] | 1 | 3/14
16 | QQLPLQPQQPFPQPQQPIPQ (Description of Artificial Sequence: Synthetic gluten peptide) [rye secalin 20mer] | 2 | 6/14
17 | QQPFLLQPQQPFSQPQQPFL (Description of Artificial Sequence: Synthetic gluten peptide) [rye secalin 20mer] | 1 | 1/14
18 | QQPQQPFPLQPQQPVPQQPQ (Description of Artificial Sequence: Synthetic gluten peptide) [rye secalin 20mer] | 1 | 3/14
19 | QQPSIQLSLQQQLNPCKNVL (Description of Artificial Sequence: Synthetic gluten peptide) [rye secalin 20mer] | 1 | 1/14
20 | QTQQSIPQPQQPFPQPQQPF (Description of Artificial Sequence: Synthetic gluten peptide) [rye secalin 20mer] | 1 | 3/14
21 | SIPQPQQPFPQPQQPFPQSQ (Description of Artificial Sequence: Synthetic gluten peptide) [rye secalin 20mer] | 1 | 4/14
22 | SPQQPQLPFPQPQQPFVVVV (Description of Artificial Sequence: Synthetic gluten peptide) [rye secalin 20mer] | 1 | 4/14
23 | VGPSGQVSWPQQQPLPQPQQ (Description of Artificial Sequence: Synthetic gluten peptide) [rye secalin 20mer] | 2 | 2/14

What follows are substances tested on PBMC from HLA-DQ2+ coeliac subjects (assay: Interferon gamma ELISPOT, hordein 20mer first round library after barley challenge). Conditions: not given.
Assay type: cell-based, human
Set-up: key to individual peptide showing maximal response in a single individual (asterisk): *: an asterisk indicates the eight individual peptides showing maximal response in a single individual
Method: as §1, §2
Secalin and hordein 20mer first round peptide libraries were assessed 3 days after completing rye (bread, 100 g/d for 3 days) or barley (boiled, 100 g/d for 3 days) challenge (“day 6” PBMC interferon gamma ELISPOT responses). Although iterative analysis using 2nd and 3rd round peptide libraries to define epitopes has not yet been performed, the 20mers pre-treated with tTG found to induce “potent” responses shared substantial structural similarity to the bioactive peptides identified after wheat challenge. […] The dominant (>70% maximal response) 20mer after rye challenge was usually […] (SEQ ID NO: 1769) (8/14 subjects), or occasionally […] (SEQ ID NO: 1770) (4/14), […] (SEQ ID NO: 1771) (1/14), […] (SEQ ID NO: 1772) (1/14) and/or […] (SEQ ID NO: 1773) (1/14). Additional peptides noted for greater than 40% maximal response in at least 1 subject include:
Typically, the dominant peptides after barley challenge included one of six peptide motifs, or were one of eight other individual 20mers “dominant” in only one of 17 subjects after barley challenge. The six motifs identified:
The barley hordein peptides showing at least 40% maximal peptide response in at least one subject include the following, wherein an asterisk indicates the eight individual peptides showing maximal response in a single individual: […]

Row | Substance | individual peptide showing maximal response in a single individual (asterisk)
24 | WQPQQPFPQPQQPFPLQPQQ (Description of Artificial Sequence: Synthetic gluten peptide) [barley hordein 20mer] | *

Same assay, conditions: 17 subjects

Row | Substance | number of subjects with > 70% maximal response | subjects with at least 40% maximal peptide response
25 | WQPQQPFPQPQQPFPLQPQQ (Description of Artificial Sequence: Synthetic gluten peptide) [barley hordein 20mer] | 5 | 9/17
26 | YPQQPQPFPQQPIPQQPQPY (Description of Artificial Sequence: Synthetic gluten peptide) [barley hordein 20mer] | 2 | 6/17
